Results reported in patent publication EP0571928A1, “Acyclic Tocotrienol analogs in the treatment of hypercholesterolemia and hyperlipidemia” (Bristol-Myers Squibb Company, priority 1992, dated 1993).

How the values were obtained:
[1] = test system: cholesterol biosynthesis in HepG2 cells; test: HepG2 cell culture model - 14C-acetate incorporation assay (cholesterol synthesis); format: cell-based; settings: 3-4 hours incubation, 2-14C-acetate incorporation into digitonin-precipitable sterols, vs. vehicle controls; for inhibition at 10 µM: Homo sapiens, read-out: Sterol Biosynthesis % Inhibition 10µM
Experimental: HepG2 Cell Culture Model - 14C-Acetate Incorporation Assay
After 16 hours in LDS containing media, test compounds were added in dimethylsulfoxide vehicle (0.5% v/v final conc.) for an incubation period of 3-4 hours. Cholesterol synthesis was then directly determined by 2-14C-acetate (1.8 mCi/mmol, 0.5 µCi/ml) incorporation for 30 to 60 minutes (previously shown to be time-linear) into total digitonin-precipitable sterols. […] Percent inhibition was calculated from the average of duplicates vs. triplicate vehicle controls conducted simultaneously.

HMG-CoA reductase = test: HepG2 cell culture model - HMG-CoA reductase suppression assay; format: cell-based; settings: HepG2 cells, 4 hours of incubation at 37°, decrease in specific activity vs. vehicle controls
Experimental: HepG2 Cell Culture Model - HMG-CoA Reductase Suppression Assay
HMG-CoA reductase suppression in HepG2 cells was conducted by growing cells in RPMT-1640 plus 10% FBS on 100 mm plates, and when cells reached approximately 75% confluency, inducing with LDS (as described above) for 16 hours prior to assays. Compounds were added using dimethylsulfoxide vehicle (0.5% v/v, final) and after 4 hours of incubation at 37°, cells were harvested by scraping. Cell pellets were rinsed and lysed by sonication in 1.7 ml cold 50 mM imidazole-HCl, pH 7.2, 50 mM NaCl, 10 mM EDTA, 10 mM EGTA, 5mM DTT, and 40 µM leupeptin). Lysates were centrifuged at 150 x g and the supernatant was centrifuged at 100,000 x g in a Beckman airfuge to isolate the post-nuclear total membrane fraction. The membranes were resuspended in 50 mM imidazole-HCl, pH 7.2, 250 mM NaCl, 5 mM DTT, and 20 µM leupeptin and used for the assay of HMG-CoA reductase activity by the radiochemical procedure as described previously by Parker et al., J. Biol. Chem., 264: 4877-4887, (1989). Values were normalized for protein content by the Lowry method as cited previously (ibid). HMG-CoA reductase percent suppression was calculated as the decrease in specific activity of HMG-CoA reductase for treated cells vs. controls receiving vehicle. Averages of duplicate cell determinations assayed in duplicate were taken.

[2] = test system: Normocholesterolemic Chickens; test: In vivo evaluation in normocholesterolemic chickens - serum cholesterol pools; settings: 6-week old male chickens, 50 ppm in diet for four weeks
Experimental: In Vivo Biological Evaluation in Normocholesterolemic Chickens
Newborn male chicks (10 for each group) were raised on a standard corn-soybean based control diet for two weeks and then switched to either control or experimental diets for four weeks. Drug treatment consisted of the addition of test compounds to the corn-soybean-based diet at a concentration of 50 ppm. At the end of the feeding period, all the birds were fasted (36 hours) and refed (48 hours) to induce cholesterolgenic enzymes prior to sacrifice. The specific activity of HMGR, total serum cholesterol levels, LDL cholesterol and HDL cholesterol pools were determined (Table 6).

| Compound | inhibition at 10 µM [1] [%] | also measured |
| --- | --- | --- |
| 1-(4-Hydroxyphenyl)-6,10,14-Trimethyl-5(E), 9(E), 13-Pentadecatrien-1- One [Example 35] | – | Sterol Biosynthesis % Inhibition 10µM [1]: 78% |
| 2-Hydroxy-4,6-Dimethyl-5-[(5,9,13-Trimethyl-4(E), 8(E), 12-Tetradecatrienyl)oxy]-1,3-Benzenedimethanol [Example 17] | – | Sterol Biosynthesis % Inhibition 10µM [1]: 72% |
| 3,5-Dimethoxy-4-[(5,9,13-Trimethyl-4(E), 8(E), 12-tetradecatrienyl)oxy]phenol [Example 16] | – | Sterol Biosynthesis % Inhibition 10µM [1]: 66% |
| 4-[2-(5,9,13)-Trimethyl-4(E), 8(E), 12-tetradecatrienyl)-1,3-dithian-2-yl]phenol [Example 34] | – | Sterol Biosynthesis % Inhibition 10µM [1]: 43% |
| 4-[(5,9,13-Trimethyl-4(E), 8(E),12-tetradecatrienyl)oxy]benzenemethanol [Example 21] | – | Sterol Biosynthesis % Inhibition 10µM [1]: 64%; HMG-CoA Reductase Suppression % 10µM (HMG-CoA reductase): 9% |
| CC(C)=CCC/C(C)=C/CC/C(C)=C/CCCOc1ccccc1 [Example 5, (5,9,13-Trimethyl-4(E), 8(E),12-tetradecatrienyl)oxy benzene] | 12 | – |
| CC(C)=CCC/C(C)=C/CC/C(C)=C/CCCOc1ccccc1O [Example 6, 2-[(5,9,13-Trimethyl-4(E), 8(E),12-tetradecatrienyl)oxy]phenol] | 10 | – |
| CC(C)=CCC/C(C)=C/CC/C(C)=C/CCCOc1cccc(O)c1 [Example 7, 3-[(5,9,13-Trimethyl-4(E), 8(E),12-tetradecatrienyl)oxy]phenol] | 38 | – |
| CC(C)=CCC/C(C)=C/CC/C(C)=C/CCCOc1ccc(O)cc1 [Example 8, 4-[(5,9,13-Trimethyl-4(E), 8(E),12-tetradecatrienyl)oxy]phenol] | 71 | HMG-CoA Reductase Suppression % 10µM (HMG-CoA reductase): 29% |
| CC(C)=CCC/C(C)=C/CC/C(C)=C/COc1ccc(O)c(C)c1C [Example 9, 2,3-Dimethyl-4-[(3,7,11-Trimethyl-2(E), 6(E), 10-dodecatrienyl)oxy]phenol] | 36 | – |
| CC(C)=CCC/C(C)=C/CC/C(C)=C/CCOc1ccc(O)c(C)c1C [Example 10, 2,3-Dimethyl-4-[(4,8,12-Trimethyl-3(E),7(E), 11-tridecatrienyl)oxy]phenol] | 58 | HMG-CoA Reductase Suppression % 10µM (HMG-CoA reductase): 38% |
| CC(C)=CCC/C(C)=C/CC/C(C)=C/CCCOc1ccc(O)c(C)c1C [Example 11, 2,3-Dimethyl-4-[(5,9,13-Trimethyl-4(E), 8(E), 12-tetradecatrienyl)oxy]phenol] | 64 | HMG-CoA Reductase Suppression % 10µM (HMG-CoA reductase): 53% |
| CC(C)=CCC/C(C)=C/CC/C(C)=C/CCCOc1c(C)cc(O)cc1C [Example 12, 3,5-Dimethyl-4-[(5,9,13-Trimethyl-4(E), 8(E), 12-tetradecatrienyl)oxy] phenol] | 70 | HDL Cholesterol [2]: 70 % of Control; LDL Cholesterol [2]: 50 % of Control; Total Cholesterol ([2]; serum): 67 % of Control; HMG-CoA Reductase Suppression % 10µM (HMG-CoA reductase): 35% |
| CC(C)=CCCC(C)=CCCC(C)=CCCCOc1c(C)cc(O)cc1C [Example 13, 3,5-Dimethyl-4-[(5,9,13-Trimethyl-4,8, 12-tetradecatrienyl)oxy]phenol] | 70 | HMG-CoA Reductase Suppression % 10µM (HMG-CoA reductase): 45% |
| CC(C)=CCC/C(C)=C/CC/C(C)=C/CCCOc1c(C)cc(OC(N)=O)cc1C [Example 14, 3,5-Dimethyl-4-[(5,9,13-Trimethyl-4(E), 8(E), 12-tetradecatrienyl)oxy]phenyl carbamate] | 65 | HMG-CoA Reductase Suppression % 10µM (HMG-CoA reductase): 21% |
| CC(C)=CCC/C(C)=C/CC/C(C)=C/CCCOc1c(C)cc(O)c(C)c1C [Example 15, 2,3,5-Trimethyl-4-[(5,9,13-Trimethyl-4(E),8(E), 12-tetradecatrienyl)oxy] phenol] | 48 | – |
| CC(C)=CCC/C(C)=C/CC/C(C)=C/CCCOc1ccc(O)c(CCO)c1 [Example 18, 2-Hydroxy-5-[(5,9,13-Trimethyl-4(E), 8(E), 12-tetradecatrienyl)oxy]benzene ethanol] | 64 | – |

| Compound | inhibition at 10 µM [1] [%] | also measured |
| --- | --- | --- |
| CC(C)=CCC/C(C)=C/CC/C(C)=C/CCCOc1c(F)c(F)c(O)c(F)c1F [Example 19, 2,3,5,6-Tetrafluoro-4-[(5,9,13-Trimethyl-4(E), 8(E)-,12-tetradecatrienyl)oxy]phenol] | 55 | – |
| CC(=O)c1cc(O)ccc1OCCC/C=C(\C)CC/C=C(\C)CCC=C(C)C [Example 20, 1-[5-Hydroxy-2-(5,9,13-Trimethyl-4(E), 8(E),12-tetradecatrienyloxy)phenyl]ethanone] | 69 | – |
| CC(C)=CCC/C(C)=C/CC/C(C)=C/CCCOc1cccc(CO)c1 [Example 22, 3-[(5,9,13-Trimethyl-4(E), 8(E),12-Tetradecatrienyl)oxy]benzenemethanol] | 73 | – |
| CC(C)=CCC/C(C)=C/CC/C(C)=C/CCCOc1ccc(C(N)=O)cc1 [Example 23, 4-[(5,9,13-Trimethyl-4(E),8(E),12-tetradecatrienyl)oxy]benzamide] | 42 | – |
| CC(C)=CCC/C(C)=C/CC/C(C)=C/CCCOc1ccc(N)cc1 [Example 24, 4-[(5,9,13-Trimethyl-4(E), 8(E),12-tetradecatrienyl)oxy]aniline] | 65 | – |
| CC(C)=CCC/C(C)=C/CC/C(C)=C/CCCOc1c(C)cc(N)cc1C [Example 26, 3,5-Dimethyl-4-[(5,9,13-Trimethyl-4(E), 8(E),12-tetradecatrienyl)oxy] aniline] | 51 | – |
| COC(=O)Nc1cc(C)c(OCCC/C=C(\C)CC/C=C(\C)CCC=C(C)C)c(C)c1 [Example 27, N-[[3,5-Dimethyl-4-[(5,9,13-Trimethyl-4(E), 8(E), 12-tetradecatrienyl)oxy]]phenyl]methyl carbamate] | 47 | – |
| CC(C)=CCC/C(C)=C/CC/C(C)=C/CCCOc1ccc(S(N)(=O)=O)cc1 [Example 28, 4-[(5,9,13-Trimethyl-4(E), 8(E),12-Tetradecatrienyl)oxy] benzenesulfonamide] | 58 | – |
| CC(C)=CCC/C(C)=C/CC/C(C)=C/CCCOc1ccc(B2OB(c3ccc(OCCC/C=C(\C)CC/C=C(\C)CCC=C(C)C)cc3)OB(c3ccc(OCCC/C=C(\C)CC/C=C(\C)CCC=C(C)C)cc3)O2)cc1 [Example 29, 2,4,6-Tris-[4-[(5,9,13-Trimethyl-4(E), 8(E),12-tetradecatrienyl)oxy]phenyl]boroxin] | 99 | – |
| CC(C)=CCC/C(C)=C/CC/C(C)=C/CCCSc1ccc(O)cc1 [Example 30, 4-[(5,9,13-Trimethyl-4(E), 8(E),12-tetradecatrienyl)thio]phenol] | 68 | HMG-CoA Reductase Suppression % 10µM (HMG-CoA reductase): 29% |
| CC(C)=CCC/C(C)=C/CC/C(C)=C/CCC[S+]([O-])c1ccc(O)cc1 (centres unmarked) [Example 31, 4-[(5,9,13-trimethyl-4(E),8(E),12-tetradecatrienyl)sulfinyl]phenol] | 47 | – |
| CC(C)=CCC/C(C)=C/CC/C(C)=C/CCCS(=O)(=O)c1ccc(O)cc1 [Example 32, 4-[(5,9,13-trimethyl-4(E),8(E),12-tetradecatrienyl)sulfonyl]phenol] | 38 | – |
| CC(C)=CCC/C(C)=C/CC/C(C)=C/CCCCc1ccc(O)cc1 [Example 33, 4-[6,10,14-Trimethyl-5(E), 9(E), 13-Pentadecatrienyl]phenol] | 50 | – |
| CC(C)=CCC/C(C)=C/CC/C(C)=C/CCCNc1ccc(O)cc1 [Example 36, 4-[(5,9,13-Trimethyl-4(E), 8(E),12-tetradecatrienyl)amino]phenol] | 43 | – |
| CC(C)=CCC/C(C)=C/CC/C(C)=C/CCCN(C(=O)OC(C)(C)C)c1ccc(O)cc1 [Example 37, 1,1-Dimethylethyl-(4-Hydroxyphenyl)-(5,9,13-Trimethyl-4(E), 8(E), 12-tetradecatrienyl) carbamate] | 79 | – |
| CC(C)=CCC/C(C)=C/CC/C(C)=C/CCC(C)(C)Oc1ccc(O)cc1 [Example 39, 4-[(1,1,5,9,13-Pentamethyl-4(E), 8(E), 12-tetradecatrienyl)oxy]phenol hydrate] | 37 | – |
